# Publication PMC7615676, “Short-course combination treatment for experimental chronic Chagas disease” (Science translational medicine, 2023)
# Read-outs that look alike come from different tables or passages of the source.
# What was measured:
# Vero host cells = test: cytotoxicity against host cells in intracellular amastigote assay; assay type: cell-based; details: Chlorocebus sabaeus, Vero, host cell cytotoxicity
# T. cruzi CYP51 = T. cruzi CYP51 (Trypanosoma cruzi, UniProt Q7Z1V1); test: T. cruzi CYP51 biochemical assay
# T. cruzi CYP51, sequence (Q7Z1V1 whole entry): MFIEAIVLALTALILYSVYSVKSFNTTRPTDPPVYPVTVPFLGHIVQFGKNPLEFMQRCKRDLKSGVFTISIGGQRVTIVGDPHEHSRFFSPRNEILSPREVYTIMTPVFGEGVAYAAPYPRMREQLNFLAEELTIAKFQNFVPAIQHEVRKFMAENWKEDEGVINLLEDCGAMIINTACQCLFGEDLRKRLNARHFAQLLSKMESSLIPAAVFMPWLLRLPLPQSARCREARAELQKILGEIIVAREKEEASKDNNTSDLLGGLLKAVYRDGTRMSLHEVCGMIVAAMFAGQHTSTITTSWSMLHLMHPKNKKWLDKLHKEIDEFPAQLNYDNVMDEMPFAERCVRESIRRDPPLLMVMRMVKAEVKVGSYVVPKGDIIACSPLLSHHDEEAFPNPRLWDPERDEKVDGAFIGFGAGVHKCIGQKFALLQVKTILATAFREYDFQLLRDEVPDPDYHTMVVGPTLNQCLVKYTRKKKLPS
# [1] = system: wild-type T. cruzi epimastigotes; test: epimastigote drug sensitivity assay, wild-type; assay type: cell-based; details: Trypanosoma cruzi
# Method: (§1) T. cruzi epimastigotes from the Silvio strain (MHOM/BR/78/Silvio; clone X10/7A) were grown at 28°C in RTH/FBS medium ([80]).
# (§2) T. cruzi epimastigote assays carried out as described previously ([43]).
# [2] = intrinsic clearance in mouse liver microsomes; assay type: in vitro ADME
# Method: Immediately at time zero and at several serial times points up to 30 min, an aliquot of the incubation mixture was removed and mixed with acetonitrile to stop the reaction. Internal standard was added to all samples, the samples centrifuged to sediment precipitated protein and the plates then sealed prior to HPLC-MS/MS analysis. Metabolic stability expressed as a percentage of the parent molecule was calculated using the peak area ratio (compound peak area/internal standard peak area) of different compounds remaining after each incubation time compared to time zero of the incubation. The half-life (t1/2) was calculated using the following equation: t1/2=−ln(2)/k, where k is the turn-over rate constant of the ln (percent remaining) vs time regression.
# CLint was calculated from the half-life (t1/2) using the following equations:
# CLint (ml/min/g liver) = (0.693/(t1/2) x (ml of incubation/mg microsomal protein) x (mg microsomal protein/g liver).
# Property Forecast Index = assay type: physicochemical; details: number of aromatic rings + ChromLogD at pH 7.4
# [3] = system: T. cruzi epimastigotes bearing mutations in cytochrome b; test: epimastigote drug sensitivity assay, cytochrome b mutant / resistant lines; assay type: cell-based, Trypanosoma cruzi; details: for EC50: Trypanosoma cruzi
# Method: as §1, §2
# Compound-resistant cell lines were generated by subculturing clones of wild-type T. cruzi epimastigotes in the continuous presence of compound 3 or compound 5. Starting at sublethal concentrations, drug concentrations in 3 independent cultures were increased in a stepwise manner, usually by 2-fold. When parasites were able to survive and grow in compound concentrations equivalent to >30-fold their established EC50 value, they were cloned by limiting dilution in the presence of compound. Three independent clones were selected from each compound for further study.
# [4] = system: intracellular T. cruzi amastigotes, strain Silvio X10/7 A1; test: intracellular T. cruzi amastigote potency assay; assay type: cell-based; details: Trypanosoma cruzi
# [5] = bioanalysis of blood samples from in vivo efficacy studies; parameters: species or system BALB/c mice; details: for AUC0-7h Day 1, unbound concentrations of compound 3 / AUC0-7h Day 5, unbound concentrations of compound 3 / Cmax Day 1, unbound concentrations of compound 3 / Cmax Day 5, unbound concentrations of compound 3: 50mg/kg bid, 5 days; for AUC(0-t) / Cmax: BALB/c, mouse, whole blood, po, 50 mg/kg, compound 3 50mg/kg bid
# Method: Following the first daily dose on day 1 and last day of treatment, serial blood samples were taken by the tail vein from all treated mice pre-dose, then 30 minutes, 1, 2, 4, and 8 hours post-dose, mixed with two volumes of distilled water and analyzed for test compound. Quantification of compounds was performed by means of LC/MSMS and exposure parameters namely Cmax and AUClast were estimated using Phoenix 64 (Pharsight Certara).
# [6] = system: T. cruzi culture derived trypomastigotes, strain Silvio X10/7 A1; test: trypomastigote assay; assay type: cell-based; details: Trypanosoma cruzi
# Method: Trypomastigote assays using strain Silvio X10/7 subclone A1 were carried out as described in ([19]). Parasite culture and potency determinations for panel of strains were performed as in ([19]). Strains used were M6241 clone 6 (DTU III), ERA clone 2 (DTU IV), PAH179 clone 5 (DTU V) and CL Brener-Luciferase (PpyRE9h-expressing T. cruzi, same strain that is used in animal model studies ([67])) (DTU VI). […] For Y strain compound exposure time was 3 days. Rate-of-kill assays were carried out as described in ([39]).
# [7] = system: chronic T. cruzi infection (CL Brener) in BALB/c mice; test: bioluminescent mouse model of chronic Chagas disease; assay type: in vivo, Trypanosoma cruzi; details: 5 days
# [8] = system: intracellular T. cruzi Silvio X10/7 A1 in Vero cells; test: washout outgrowth assay; assay type: cell-based, Trypanosoma cruzi; details: 50× EC50 for five days
# Method: Washout outgrowth assay: Vero cells were infected overnight in T600 flasks at a multiplicity of infection (MOI) 5 with T. cruzi Silvio X10/7 A1 trypomastigotes, followed by washing of the Vero monolayer to remove free trypomastigotes. 24 hours later the monolayer was trypsinised, 5.3 x 10^6 Vero cells were plated in T75 tissue culture flasks (in 20 ml MEM-Glutamax (ThermoFisher), 1% Fetal Calf Serum (FCS)), and treatment was started. For ten-day treatments, medium with compounds was replaced after the initial 5 days. For 16 day treatments the compounds were replaced every four days. For compound washout, all medium was aspirated, and flasks were washed three times with 10 ml serum-free MEM medium followed by a final aspiration and addition of 20 ml MEM-Glutamax (ThermoFisher) supplemented with 1% FCS. The cultures were then maintained until trypomastigotes were detected by light microscopy. Medium was replaced twice weekly and prior to each medium replacement microscopic evaluation was carried out (five fields per flask) for up to 60 days post washout. Robustness of the data was confirmed by profiling multiple compounds from the pyrrolopyrimidine series in a single experiment (compounds 2,3 and 4 in Fig. 2 and Fig. S17) as well as comparing results from independent experiments (compound 2 in Fig. 2, Fig. S5 and Fig. S7).
# FaSSIF solubility assay = assay type: physicochemical; details: pH 6.5, 4 h
# Method: Solubility of test compounds in fasted simulated intestinal fluid (FaSSIF) was determined at pH 6.5 after 4 h equilibration at rt. An amount of1 mL of FaSSIF buffer (3 mM sodium taurocholate, 0.75 mM lecithin in sodium phosphate buffer at pH 6.5) was added to manually weighed 1 mg of solid compound in a 2 mL HPLC autosampler vial. The resulting suspension was shaken at 900 rpm for 4 h at rt and then transferred to a Multiscreen HTS, 96-well solubility filter plate. The residual solid was removed by filtration. The supernatant solution was quantified by HPLC−UV using single-point calibration of a known concentration of the compound in DMSO. The dynamic range of the assay was 1−1000 μg/mL.
# [9] = dosing group 3 + BNZ (30mg/kg qd)
structure (smiles),measurement,setting,value
"COc1cc(Cl)ccc1-c1c(C)[nH]c2nc(N)nc(C)c12 [Compound 3, 5-(4-Chloro-2-methoxyphenyl)-4,6-dimethyl-7H-pyrrolo[2,3-d]pyrimidin-2-amine]",EC50,Vero host cells; read-out: Vero EC50,> 50000 nM
same,EC50,Vero host cells; read-out: Vero pEC50 (converted),> 50100 nM
same,IC50,T. cruzi CYP51,> 100000 nM
same,EC50,[1]; read-out: EC50 wild-type,4.6 ± 0.2 nM
same,EC50,[1]; read-out: EC50 wild-type epimastigotes,11.3 ± 0.5 nM
same,EC50,"[1]; Table 2, wild-type epimastigotes, read-out: EC50 WT",6 ± 0.2 nM
same,Cl int mouse,[2],1.4 ml/min/g liver
same,half-life at 0.5 μM,"[2]; male, CD-1, read-out: T 1/2 mouse",48 min
same,PFI,Property Forecast Index,7.2
same,EC50,[3]; read-out: EC50 F222L,1120 ± 63 nM
same,EC50,[3]; read-out: EC50 G36C/L197F cytb line,3 ± 0.1 nM
same,EC50,[3]; read-out: EC50 G36C/L197I cytb line,258 ± 7 nM
same,EC50,[3]; read-out: EC50 L197F cytb line,3.7 ± 0.1 nM
same,EC50,[3]; read-out: EC50 L197I,115 ± 7 nM
same,EC50,[3]; read-out: EC50 compound 3-resistant clone RES1,107 ± 5.4 nM
same,EC50,[3]; read-out: EC50 compound 3-resistant clone RES3,166 ± 14 nM
same,"fold change from WT, L197I",[3]; compound 3-resistant line (L197I),19 fold
same,"fold change from WT, F222L",[3]; compound 5-resistant line (F222L),183 fold
same,cross-resistance of G36C and L197I epimastigotes,[3]; versus wild-type,23 fold
same,EC50,"[4]; intracellular amastigotes Silvio X10/7 A1, 96 h, ± SD, min. three experiments, read-out: Amastigotes pEC50 (converted)",10 nM
same,EC50,[4]; read-out: Amastigotes EC50,10 nM
same,"AUC0-7h Day 1, unbound concentrations of compound 3",[5]; [9],2234 ± 509 ng·h/mL
same,"AUC0-7h Day 5, unbound concentrations of compound 3",[5]; [9],5525 ± 663 ng·h/mL
same,"Cmax Day 1, unbound concentrations of compound 3",[5]; [9],412 ± 88 ng/mL
same,"Cmax Day 5, unbound concentrations of compound 3",[5]; [9],977 ± 129 ng/mL
same,"AUC0-7h Day 1, unbound concentrations of compound 3",[5]; dosing group 3 alone,3024 ± 619 ng·h/mL
same,"AUC0-7h Day 5, unbound concentrations of compound 3",[5]; dosing group 3 alone,6094 ± 870 ng·h/mL
same,"Cmax Day 1, unbound concentrations of compound 3",[5]; dosing group 3 alone,530 ± 95 ng/mL
same,"Cmax Day 5, unbound concentrations of compound 3",[5]; dosing group 3 alone,1014 ± 185 ng/mL
same,AUC(0-t),"[5]; 10-day study, read-out: AUC0-7h Day 1",1800 ± 243 ng·h/mL
same,AUC(0-t),"[5]; 10-day study, read-out: AUC0-7h last day",7790 ± 1560 ng·h/mL
same,Cmax,"[5]; 10-day study, read-out: Cmax Day 1",325 ± 59 ng/mL
same,Cmax,"[5]; 10-day study, read-out: Cmax last day",1250 ± 259 ng/mL
same,AUC(0-t),"[5]; 20-day study, read-out: AUC0-7h Day 1",2740 ± 388 ng·h/mL
same,AUC(0-t),"[5]; 20-day study, read-out: AUC0-7h last day",4920 ± 479 ng·h/mL
same,Cmax,"[5]; 20-day study, read-out: Cmax Day 1",480 ± 69 ng/mL
same,Cmax,"[5]; 20-day study, read-out: Cmax last day",810 ± 75 ng/mL
same,EC50,[6]; read-out: Trypomastigotes EC50,10 nM
same,EC50,[6]; read-out: Trypomastigotes pEC50 (converted),12.6 nM
same,95% confidence interval for no-relapse,"[7]; Fig. 3, compound 3 50 mg/kg bid",0.19 − 0.81
same,animals relapsed,"[7]; compound 3 monotherapy 50 mg/kg bid, oral",three out of six
same,relapse day after the end of treatment,[8],14 days
same,FaSSIF pH 6.5,FaSSIF solubility assay,76 µg/mL
